Assay results reported in the supplement of paper PMC10307832.

compound: COC1=CC=C(C=C1)CN2C=CC3=C2C=C(C=C3)C(=O)NO + CS(=O)(=O)CCNCc1ccc(-c2ccc3ncnc(Nc4ccc(OCc5cccc(F)c5)c(Cl)c4)c3c2)o1 [Lapatinib] (partner 2 µM); experiment: relative viability (nuclei count vs DMSO), 5 days (fraction); higher = more cells survive; settings: first compound 0.08 µM
How it was run: (§1)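 Cells from lung cancer lines were seeded into 1536-well plates and, one day later, dosed by pin tool. Treatments were either a single drug or a fixed dose of an anchor drug with five library-drug doses (not always all listed) in √10 steps. After 5 days, nuclei were stained in a one-step fixation (final 0.05% Triton X-100, 1% formaldehyde, 1 ug/ml Hoechst) and counted on 4× images, and relative viability is the treated-to-vehicle nuclei ratio, as the median of duplicate plates.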

| Cell Line | relative viability |
| --- | --- |
| HOP-62 | 0.225 |
| NCI-H2347 | 0.517 |
| HARA | 0.424 |
| NCI-H1355 | 0.247 |
| NCI-H1915 | 0.301 |
| SK-MES-1 | 0.473 |
| NCI-H23 | 0.383 |
| CAL-12T | 0.215 |

same assay, conditions: first compound 0.253 µM

| Cell Line | relative viability |
| --- | --- |
| HOP-62 | 1.1 |
| NCI-H2347 | 0.896 |
| HARA | 0.891 |
| NCI-H1355 | 1.1 |
| NCI-H1915 | 0.977 |
| SK-MES-1 | 0.519 |
| NCI-H23 | 1.21 |
| NCI-H661 | 0.471 |
| NCI-H1944 | 0.834 |
| HCC-366 | 0.992 |
| NCI-H322M | 0.628 |

same assay, conditions: first compound 0.8 µM

| Cell Line | relative viability |
| --- | --- |
| HOP-62 | 1.08 |
| NCI-H2347 | 1.03 |
| HARA | 0.815 |
| NCI-H1355 | 0.959 |
| NCI-H1915 | 1.01 |
| SK-MES-1 | 0.534 |
| NCI-H23 | 1.06 |
| NCI-H661 | 0.471 |
| CAL-12T | 0.715 |
| NCI-H1944 | 0.86 |
| HCC-366 | 1.06 |
| NCI-H322M | 0.644 |

same assay, conditions: first compound 2.53 µM

| Cell Line | relative viability |
| --- | --- |
| HOP-62 | 0.997 |
| NCI-H2347 | 1.01 |
| HARA | 0.712 |
| NCI-H1355 | 0.978 |
| NCI-H1915 | 1 |
| SK-MES-1 | 0.497 |
| NCI-H23 | 1.01 |
| NCI-H661 | 0.443 |
| CAL-12T | 0.755 |
| NCI-H1944 | 0.817 |
| HCC-366 | 1.04 |
| NCI-H322M | 0.293 |

same assay, conditions: first compound 8 µM

| Cell Line | relative viability |
| --- | --- |
| HOP-62 | 0.973 |
| NCI-H2347 | 0.904 |
| HARA | 0.679 |
| NCI-H1355 | 0.934 |
| NCI-H1915 | 0.958 |
| SK-MES-1 | 0.446 |
| NCI-H23 | 0.88 |
| NCI-H661 | 0.402 |
| CAL-12T | 0.605 |
| NCI-H1944 | 0.701 |
| HCC-366 | 1.07 |
| NCI-H322M | 0.499 |

compound: COC1=CC=C(C=C1)CN2C=CC3=C2C=C(C=C3)C(=O)NO + C[C@@H](Oc1cc(-c2cnn(C3CCNCC3)c2)cnc1N)c1c(Cl)ccc(F)c1Cl [Crizotinib] (partner 1 µM); experiment: as above; settings: first compound 0.08 µM
How it was run: as §1

| Cell Line | relative viability |
| --- | --- |
| HOP-62 | 0.826 |
| NCI-H2347 | 0.666 |
| HARA | 0.194 |
| NCI-H1355 | 0.913 |
| NCI-H1915 | 0.777 |
| SK-MES-1 | 1 |
| NCI-H23 | 0.481 |
| CAL-12T | 0.474 |

same assay, conditions: first compound 0.253 µM

| Cell Line | relative viability |
| --- | --- |
| HOP-62 | 0.833 |
| NCI-H2347 | 0.7 |
| HARA | 1.1 |
| NCI-H1355 | 1.2 |
| NCI-H1915 | 0.892 |
| SK-MES-1 | 0.983 |
| NCI-H23 | 0.708 |
| NCI-H661 | 0.814 |
| CAL-12T | 0.616 |
| NCI-H1944 | 1.18 |
| HCC-366 | 0.476 |
| NCI-H322M | 0.816 |

same assay, conditions: first compound 0.8 µM

| Cell Line | relative viability |
| --- | --- |
| HOP-62 | 1.01 |
| NCI-H2347 | 0.856 |
| HARA | 0.99 |
| NCI-H1355 | 1.02 |
| NCI-H1915 | 0.935 |
| SK-MES-1 | 0.984 |
| NCI-H23 | 0.445 |
| NCI-H661 | 1.08 |
| CAL-12T | 0.702 |
| NCI-H1944 | 1.1 |
| HCC-366 | 0.534 |
| NCI-H322M | 0.98 |

same assay, conditions: first compound 2.53 µM

| Cell Line | relative viability |
| --- | --- |
| HOP-62 | 1.01 |
| NCI-H2347 | 0.672 |
| HARA | 1.09 |
| NCI-H1355 | 1.12 |
| NCI-H1915 | 0.905 |
| SK-MES-1 | 1 |
| NCI-H23 | 0.343 |
| NCI-H661 | 1.05 |
| CAL-12T | 0.686 |
| NCI-H1944 | 1.09 |
| HCC-366 | 0.413 |
| NCI-H322M | 0.851 |

same assay, conditions: first compound 8 µM

| Cell Line | relative viability |
| --- | --- |
| HOP-62 | 0.959 |
| NCI-H2347 | 0.655 |
| HARA | 0.951 |
| NCI-H1355 | 0.977 |
| NCI-H1915 | 0.857 |
| SK-MES-1 | 0.885 |
| NCI-H23 | 0.401 |
| NCI-H661 | 1 |
| CAL-12T | 0.542 |
| NCI-H1944 | 1.08 |
| HCC-366 | 0.352 |
| NCI-H322M | 0.793 |

compound: COC1=CC=C(C=C1)CN2C=CC3=C2C=C(C=C3)C(=O)NO + C[C@]1(O)C[C@@H](c2nc(-c3ccc4ccc(-c5ccccc5)nc4c3)c3c(N)nccn32)C1 [Linsitinib] (partner 1 µM); experiment: as above; settings: first compound 0.08 µM
How it was run: as §1

| Cell Line | relative viability |
| --- | --- |
| HOP-62 | 0.681 |
| NCI-H2347 | 0.697 |
| HARA | 0.126 |
| NCI-H1355 | 0.792 |
| NCI-H1915 | 1.05 |
| SK-MES-1 | 1.03 |
| NCI-H23 | 0.406 |
| CAL-12T | 0.695 |

same assay, conditions: first compound 0.253 µM

| Cell Line | relative viability |
| --- | --- |
| HOP-62 | 1.06 |
| NCI-H2347 | 0.918 |
| HARA | 1.01 |
| NCI-H1355 | 0.826 |
| NCI-H1915 | 1.1 |
| SK-MES-1 | 1.05 |
| NCI-H23 | 0.619 |
| NCI-H661 | 0.525 |
| CAL-12T | 0.917 |
| NCI-H1944 | 1.18 |
| HCC-366 | 0.98 |
| NCI-H322M | 0.934 |

same assay, conditions: first compound 0.8 µM

| Cell Line | relative viability |
| --- | --- |
| HOP-62 | 1.01 |
| NCI-H2347 | 1.03 |
| HARA | 1.01 |
| NCI-H1355 | 0.812 |
| NCI-H1915 | 1.07 |
| SK-MES-1 | 1.12 |
| NCI-H23 | 0.564 |
| NCI-H661 | 0.555 |
| CAL-12T | 0.756 |
| NCI-H1944 | 1.38 |
| HCC-366 | 0.636 |
| NCI-H322M | 0.931 |

same assay, conditions: first compound 2.53 µM

| Cell Line | relative viability |
| --- | --- |
| HOP-62 | 0.924 |
| NCI-H2347 | 0.982 |
| HARA | 1.07 |
| NCI-H1355 | 0.895 |
| NCI-H1915 | 1.09 |
| SK-MES-1 | 1.14 |
| NCI-H23 | 0.599 |
| NCI-H661 | 0.521 |
| CAL-12T | 0.76 |
| NCI-H1944 | 1.21 |
| HCC-366 | 0.673 |
| NCI-H322M | 0.946 |

same assay, conditions: first compound 8 µM

| Cell Line | relative viability |
| --- | --- |
| HOP-62 | 1.04 |
| NCI-H2347 | 0.877 |
| HARA | 0.962 |
| NCI-H1355 | 0.809 |
| NCI-H1915 | 1.09 |
| SK-MES-1 | 1.01 |
| NCI-H23 | 0.544 |
| NCI-H661 | 0.46 |
| CAL-12T | 0.786 |
| NCI-H1944 | 1.1 |
| HCC-366 | 0.696 |
| NCI-H322M | 0.926 |

compound: C[C@]1(c2nc3c(C(N)=O)cccc3[nH]2)CCCN1 [Veliparib] + COc1cccc2cc(-c3nc([C@H]4CC[C@H](C(=O)O)CC4)n4ncnc(N)c34)[nH]c12 [OSI-027] (partner 0.5 µM); experiment: as above; settings: first compound 0.02 µM
How it was run: as §1

| Cell Line | relative viability |
| --- | --- |
| HOP-62 | 0.756 |
| NCI-H2347 | 0.416 |
| HARA | 0.508 |
| NCI-H1915 | 0.587 |
| SK-MES-1 | 0.618 |
| NCI-H23 | 0.652 |
| NCI-H661 | 0.751 |
| CAL-12T | 0.62 |
| NCI-H1944 | 0.439 |
| HCC-366 | 0.961 |

same assay, conditions: first compound 0.06325 µM

| Cell Line | relative viability |
| --- | --- |
| HOP-62 | 0.734 |
| NCI-H2347 | 0.377 |
| HARA | 0.495 |
| NCI-H1355 | 0.323 |
| NCI-H1915 | 0.616 |
| SK-MES-1 | 0.527 |
| NCI-H23 | 0.393 |
| NCI-H661 | 0.704 |
| CAL-12T | 0.629 |
| NCI-H1944 | 0.363 |
| HCC-366 | 0.752 |
| NCI-H322M | 0.48 |

same assay, conditions: first compound 0.2 µM

| Cell Line | relative viability |
| --- | --- |
| HOP-62 | 0.798 |
| NCI-H2347 | 0.473 |
| HARA | 0.465 |
| NCI-H1355 | 0.448 |
| NCI-H1915 | 0.545 |
| SK-MES-1 | 0.686 |
| NCI-H23 | 0.587 |
| NCI-H661 | 0.743 |
| CAL-12T | 0.604 |
| NCI-H1944 | 0.394 |
| HCC-366 | 0.89 |
| NCI-H322M | 0.526 |

same assay, conditions: first compound 0.6325 µM

| Cell Line | relative viability |
| --- | --- |
| HOP-62 | 0.792 |
| NCI-H2347 | 0.206 |
| HARA | 0.433 |
| NCI-H1355 | 0.357 |
| NCI-H1915 | 0.567 |
| SK-MES-1 | 0.588 |
| NCI-H23 | 0.518 |
| NCI-H661 | 0.669 |
| CAL-12T | 0.584 |
| NCI-H1944 | 0.349 |
| HCC-366 | 0.838 |
| NCI-H322M | 0.557 |

same assay, conditions: first compound 2 µM

| Cell Line | relative viability |
| --- | --- |
| HOP-62 | 0.761 |
| NCI-H2347 | 0.347 |
| HARA | 0.485 |
| NCI-H1355 | 0.355 |
| NCI-H1915 | 0.574 |
| SK-MES-1 | 0.638 |
| NCI-H23 | 0.737 |
| NCI-H661 | 0.657 |
| CAL-12T | 0.657 |
| NCI-H1944 | 0.384 |
| HCC-366 | 0.915 |
| NCI-H322M | 0.482 |
